In ChEMBL document CHEMBL1201862, “PubChem BioAssay data set” (2004):
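Cells were grown in 96-well plates and exposed to each compound for 48 hours at five concentrations; endpoints were interpolated linearly between bracketing concentrations, or set to the highest concentration if not reached. GI50: concentration for 50% inhibition of growth.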 Activity calls are given as the source filed them. No stated cut-off is given here; in the data, active = GI50 up to about 1.1 µM and inactive = higher.

How the values were obtained:
Experiment in all cases: NCI-60 cell line screen, 48 h
[1] = system: NCI-H460
[2] = system: RPMI-8226
[3] = system: NCI/ADR-RES
[4] = system: IGROV-1
[5] = system: MDA-MB-435
[6] = system: ACHN
[7] = system: PC-3
[8] = system: HOP-62
[9] = system: HL-60
[10] = system: MOLT-4
[11] = system: HT-29
[12] = system: SK-MEL-28
[13] = system: 786-0
[14] = system: SK-MEL-2
[15] = system: MDA-MB-231
[16] = system: SNB-75
[17] = system: NCI-H522
[18] = system: A498

Measured: GI50

O=S1(=O)OCCOS(=O)(=O)C1S(=O)(=O)c1ccc2ccccc2c1
inactive: [1] > 100 µM | [2] > 100 µM | [3] > 100 µM | [4] > 100 µM | [5] > 100 µM | [6] > 100 µM | [7] > 100 µM | [8] > 100 µM | [9] > 100 µM | [10] > 100 µM | [11] > 100 µM | [12] > 100 µM | [13] > 100 µM | [14] > 100 µM | [15] > 100 µM

CCOP(=O)(OCC)C(c1ccccc1)N(C(=O)NC(F)(F)F)c1cccc(F)c1 (stereo unspecified)
inactive: [1] > 100 µM | [2] 83.2 µM | [3] 58.9 µM | [4] 6.93 µM | [5] > 100 µM | [6] > 100 µM | [7] 45.8 µM | [8] > 100 µM | [16] > 100 µM | [9] > 100 µM | [10] 81.1 µM | [11] > 100 µM | [12] > 100 µM | [13] > 100 µM | [17] > 100 µM | [15] > 100 µM

CN1CCN(CN2C(=O)C3C4C=CC(C3C2=O)C2C3C(=O)N(CN5CCN(C)CC5)C(=O)C3C42)CC1 (stereo unspecified)
inactive: [1] 16.1 µM | [2] 24.7 µM | [4] 34.2 µM | [18] 93.1 µM | [6] 28.2 µM | [8] 70 µM | [16] 27.4 µM | [10] 22.2 µM | [11] 33.4 µM | [12] 23.5 µM | [13] 18.2 µM

Cc1cs/c(=N/c2ccccc2)n1CCC(O)(P(=O)(O)O)P(=O)(O)O
inactive: [1] 90.6 µM | [3] > 100 µM | [4] > 100 µM | [6] 67.3 µM | [7] > 100 µM | [8] > 100 µM | [16] > 100 µM | [11] > 100 µM | [13] > 100 µM | [17] > 100 µM | [15] > 100 µM

COc1cccc(/C=C2\CCC(CCN(C)C)(C3=CCCC3)C2=O)c1 (stereo unspecified)
inactive: [1] 15.8 µM | [2] 11.7 µM | [4] 15.8 µM | [18] 15.7 µM | [6] 16.7 µM | [8] 17.2 µM | [16] 15.9 µM | [10] 13.9 µM | [11] 13.8 µM | [12] 15.9 µM | [13] 14.7 µM | [14] 15.9 µM | [17] 13.4 µM
